These results are taken from patent publication US11046745B2, “Peptide mimotopes of the CD3 T-cell co-receptor epsilon chain and uses thereof” (BioNTech SE, priority 2015, dated 2021).

Positions of bridges follow the written chain, without caps; N, C: chain ends. Residues, ends and D or L forms follow the SMILES beside them. *: point of attachment. Biotin = O=C1N[C@H]2[C@H](CS[C@H]2CCCCC(=O)*)N1

The subject of experiment [1] is TR66 antibody. The experiment can be described thus: Peptide microarray incubated with TR66, fluorescently labelled secondary antibody. Format: binding. To be noted: cyclic peptide immobilized through C-terminus; 1.0 μg/ml TR66; data not shown. As to the method:
Peptides were synthesized and printed on peptide-microarray slides essentially as described previously (Funkner, A. et al., J. Mol. Biol. 425, 1340-1362 (2013)). In brief, the peptides were synthesized using SPOT synthesis (Wenschuh, H. et al., Biopolymers 55, 188-206 (2000)) cleaved from the solid support and cyclized (50% DMSO, PBS buffer pH 7-8, RT, 16 hours). Subsequently, all peptides were chemoselectively immobilized on functionalized glass slides as described earlier (Schnatbaum, K. et al., Biotechnol. J. 9, 545-554 (2014); Funkner, A. et al., J. Mol. Biol. 425, 1340-1362 (2013)). Each peptide was deposited on the microarray in triplicates.
The microarrays were incubated with 1.0 or 0.1 μg/ml TR66 in an HS 4800 microarray processing station (Tecan) for two hours at 30° C., followed by incubation with 1.0 μg/ml fluorescently labelled secondary antibody (Alexa647 anti-human Fe antibody; Jackson Immuno Research). Washing steps were performed prior every incubation step with 0.1% Tween-20 in 1×TBS. After the final incubation step the microarrays were washed (0.05% Tween-20 in 0.1×SSC) and dried in a stream of nitrogen. Each microarray was scanned using a GenePix Autoloader 4200AL (Molecular Devices, Pixel size: […]). Signal intensities were evaluated using GenePix Pro 7.0 analysis software (Molecular Devices). For each peptide, the mean of the three triplicates was calculated. […]

Experiment [2] concerns TR66 antibody (CD3ε specific antibody, clone TR66). The experiment can be described thus: Binding analysis using biolayer interferometry (BLI), Octet Red, biotinylated peptides on streptavidin sensors. The note with it: 500 nM TR66 antibody, one concentration. As to the method: FIG. 5. Comparative binding analysis of matured TR66 mimotopes aCD3-04-002 and aCD3-04-013 using biolayer interferometry (BLI) on an Octet Red system (fortéBIO). Biotinylated peptides were immobilized onto streptavidin (SA) sensors. After blocking with 1× blocking buffer and biocytin association and dissociaten rates of TR66 binding were recorded over a period of 2400 sec respectively. The antibody was used in a range of 1.5625 to 100 nM (1.5625, 3.125, 6.25, 12.5, 25, 50, 100 nM) for each analyzed peptide.
Binding analysis was performed using streptavidin (SA) sensors on an Octet Red system (fortéBIO). 5 μg/ml of biotinylated peptides were used for loading (200 μl per sensor). […] Remained biotin binding sites on coated streptavidin sensors were blocked using 100 μg/ml biocytin (Sigma-Aldrich) for 5 minutes. For binding mode analysis of different peptides 500 nM TR66 antibody was used in the association step. For detailed analysis the antibody was used in a range of 1.5625 to 100 nM (1.5625, 3.125, 6.25, 12.5, 25, 50, 100 nM) for each analyzed peptide. The following program was used: • Baseline: 1000 rpm for 180 sec. • Load: 1000 rpm for 900 sec. • Baseline: 1000 rpm for 180 sec. • Blocking: 1000 rpm for 300 sec. • Association: 1000 rpm for 1200-2400 sec. • Dissociation: 1000 rpm for 1200-2400 sec.
The peptides displaying the highest binding affinities from the peptide microarray experiments were synthesized by standard Fmoc-based solid-phase-synthesis protocols and purified (HPLC purity: >80%). The binding characteristics of each peptide were determined. In the first instance all peptides were analysed via biolayer interferometry (BLI) to get a first impression whether the respective variant has a significant binding property at all (yes/no binding, Table 2). At his point, only one TR66 concentration (500 nM) was tested. Except variants aCD3-04-010 and aCD3-04-012 all peptides show a measurable binding activity.
Background: BLI is a label-free optical method that tracks binding on a fibre tip over time.

Experiment [3] has as its target TR66 antibody (CD3ε specific antibody, clone TR66). Briefly: Binding analysis using peptide ELISA, biotinylated peptides on streptavidin plates, TR66. The procedure: FIG. 3. Binding analysis of phage derived variants using a peptide based ELISA. Biotinylated peptides were immobilized on streptavidin plates (Nunc) in a concentration of 0.75 μg/ml. After blocking 30 μg/ml TR66 or an unrelated antibody (control ab) were added and incubated for 1 h at 37° C. Binding was detected with an alkaline phosphatase conjugated goat anti-human IgG antibody (Sigma) and the chromogenic substrate PNPP (para-nitrophenyl phosphate). All reactions were performed as duplicates. SD values are presented as error bars.
For the detection of TR66 or OKT3 (Bio-X-Cell), the CD3 mimicking peptides were immobilized on streptavidin plates (Nunc) in a concentration of 0.75 μg/ml in PBS buffer for 1 hour at 37° C. Subsequently, the plate was washed three times with washing buffer (0.01% Tween-20 in PBS buffer) before it was blocked with 3% BSA in PBS overnight at 4° C. To detect TR66 or OKT3, the blocked plate was washed again three times with washing buffer followed by the addition of TR66 or OKT3 and incubation for 30 min at 37° C. After another washing step, it was incubated with an alkaline phosphatase conjugated Goat anti-human or anti-mouse IgG, Fe antibody (Jackson Immuno Research) for additional 30 min at 37° C. Finally, the plate was washed again before being incubated with 1.5 mg/ml of the substrate PNPP (para-nitrophenyl phosphate) in appropriate substrate buffer (1 M Diethanolamine, 0.05 mM MgCl2, 0.01% sodium azide, pH 9.8) for 30 min at RT in the dark. 3 M KOH was used to stop the enzymatic reaction. Absorbance was measured with a microplate reader (Infinite M200, Tecan). For dual wavelength analysis, 405 nm was chosen as measurement wavelength and 492 nm as reference wavelength. Absorbance values were calculated by subtraction of the measured values for the reference wavelength and for the measurement wavelength. Calculation of apparent KD values was done by fitting the data with Sigma Plot 10 using a two-site saturation binding model.
A general note: An ELISA detects its analyte on a solid surface through an enzyme-linked reagent.

For `C[C@H](N)C(=O)N[C@H]1CSSC[C@@H](C(=O)NCC(=O)NCC(=O)NCC(=O)N[C@@H](CO)C(=O)N[C@@H](CCCCNC(=O)CCCC[C@@H]2SC[C@@H]3NC(=O)N[C@@H]32)C(=O)O)NC(=O)[C@H](CCC(N)=O)NC(=O)[C@@H]2CCCN2C(=O)[C@H](CC(=O)O)NC(=O)CNC(=O)[C@@H]2CCCN2C(=O)[C@H](CCCNC(=N)N)NC(=O)[C@H]([C@@H](C)O)NC1=O` [aCD3 C7C-4, ACTRPGDPQC-GGGS-K(Bio)] (H-ACTRPGDPQCGGGSK(Biotin)-OH; disulfide 2-10), in experiment [1], the “TR66 binding on peptide microarray” value is recorded as “strong binding”. Moreover, the “Yes/no binding, BLI” value in experiment [2] was “Yes”. Moreover, the Kd in experiment [3] (TR66, mean of at least two individual measurements, two-site saturation binding model, read-out: Apparent KD, ELISA) was found to be 370 nM. Moreover, the “TR66 binding after chemical synthesis, ELISA-based binding analysis (FIG. 3)” value in experiment [3] (peptide 0.75 μg/ml, 30 μg/ml TR66) is given as “could be verified”.
